{
  "source": "ChEMBL document CHEMBL1128938",
  "about": "“Evaluation of furofuran as a P2 ligand for symmetry-based HIV protease inhibitors” (Bioorg Med Chem Lett, 1996)",
  "key": {"[1]": {"target": "Human immunodeficiency virus type 1 protease (Human immunodeficiency virus 1) (UniProt Q72874)", "assay": "Tested for its inhibition against HIV protease at a concentration of 0.5 nM."}, "MT4 [2]": {"system": "MT4", "assay": "Cytotoxicity in MT-4 cells using cytopathicity assay.", "format": "functional, Homo sapiens"}, "MT4 [3]": {"system": "MT4", "assay": "Tested for its anti-HIV activity in MT-4 cells in the presence of 50% human serum.", "format": "functional, cell-based"}, "MT4 [4]": {"system": "MT4", "assay": "Tested for its anti-HIV activity in MT-4 cells.", "format": "functional, cell-based", "conditions": "Homo sapiens"}, "[5]": {"assay": "AUC value after IV dose at a dose of 5 mg/kg in rats.", "format": "ADME, organism-based", "parameters": "dose 5 mg/kg, route intravenous", "conditions": "rat, plasma"}, "[6]": {"assay": "Cmax value after oral dose at a dose of 10 mg/kg in rats.", "format": "ADME, organism-based", "parameters": "dose 10 mg/kg, route oral", "conditions": "rat, in vivo"}, "[7]": {"assay": "Tmax value after oral dose at a dose of 10 mg/kg in rats.", "format": "ADME, organism-based", "parameters": "dose 10 mg/kg, route oral", "conditions": "rat, in vivo"}, "[8]": {"assay": "AUC value after oral dose at a dose of 10 mg/kg in rats.", "format": "ADME, organism-based", "parameters": "dose 10 mg/kg, route oral", "conditions": "rat, plasma"}, "[9]": {"assay": "Half-life value after IV dose at a dose of 5 mg/kg in rats.", "format": "ADME, organism-based", "parameters": "dose 5 mg/kg, route intravenous", "conditions": "rat, in vivo"}, "[10]": {"assay": "Oral bioavailability in rat (dose 10 mg/kg p.o.)", "format": "ADME, organism-based", "conditions": "in vivo"}, "[11]": {"target": "Human immunodeficiency virus type 1 protease (Human immunodeficiency virus 1) (UniProt Q72874)", "assay": "Compound was tested for its inhibition against HIV protease at a concentration of 4 nM."}},
  "data": [
    {"smiles": "O=C(N[C@@H](Cc1ccccc1)C[C@H](O)[C@H](Cc1ccccc1)NC(=O)O[C@@H]1COC2OCCC21)O[C@H]1COC2OCCC21", "note": "(stereo partly drawn)", "values": [
      {"measurement": "inhibition", "setting": "[1]", "value": 73, "unit": "%"},
      {"measurement": "CCIC50", "setting": "MT4 [2]", "value": ">100", "unit": "µM"},
      {"measurement": "EC50", "setting": "MT4 [3]", "value": 197, "unit": "nM"},
      {"measurement": "EC50", "setting": "MT4 [4]", "value": 107, "unit": "nM"}
    ]},
    {"smiles": "CC(C)(C)OC(=O)N[C@@H](Cc1ccccc1)C[C@H](O)[C@H](Cc1ccccc1)NC(=O)O[C@H]1COC2OCCC21", "note": "(stereo partly drawn)", "values": [
      {"measurement": "inhibition", "setting": "[1]", "value": 63, "unit": "%"},
      {"measurement": "CCIC50", "setting": "MT4 [2]", "value": 69, "unit": "µM"},
      {"measurement": "EC50", "setting": "MT4 [4]", "value": 180, "unit": "nM"}
    ]},
    {"smiles": "O=C(N[C@@H](Cc1ccccc1)C[C@H](O)[C@H](Cc1ccccc1)NC(=O)O[C@H]1COC2OCCC21)Oc1cncs1", "note": "(stereo partly drawn)", "values": [
      {"measurement": "AUC", "setting": "[5]", "value": 2300, "unit": "ng·h/mL"},
      {"measurement": "Cmax", "setting": "[6]", "value": 1120, "unit": "ng/mL"},
      {"measurement": "inhibition", "setting": "[1]", "value": 53, "unit": "%"},
      {"measurement": "CCIC50", "setting": "MT4 [2]", "value": ">100", "unit": "µM"},
      {"measurement": "Tmax", "setting": "[7]", "value": 30, "unit": "min"},
      {"measurement": "AUC", "setting": "[8]", "value": 1890, "unit": "ng·h/mL"},
      {"measurement": "half-life", "setting": "[9]", "value": 41.4, "unit": "min"},
      {"measurement": "EC50", "setting": "MT4 [3]", "value": 290, "unit": "nM"},
      {"measurement": "EC50", "setting": "MT4 [4]", "value": 140, "unit": "nM"},
      {"measurement": "bioavailability", "setting": "[10]", "value": 41.1, "unit": "%"}
    ]},
    {"smiles": "CC(C)(C)OC(=O)N[C@@H](Cc1ccccc1)C[C@H](O)[C@H](Cc1ccccc1)NC(=O)O[C@@H]1COC2OCCC21", "note": "(stereo partly drawn)", "values": [
      {"measurement": "inhibition", "setting": "[1]", "value": 45, "unit": "%"},
      {"measurement": "CCIC50", "setting": "MT4 [2]", "value": ">100", "unit": "µM"},
      {"measurement": "EC50", "setting": "MT4 [3]", "value": 4730, "unit": "nM"},
      {"measurement": "EC50", "setting": "MT4 [4]", "value": 1040, "unit": "nM"}
    ]},
    {"smiles": "CC(C)(C)OC(=O)N[C@@H](Cc1ccccc1)C[C@H](O)[C@H](Cc1ccccc1)NC(=O)OC1COC2OCCC12", "note": "(stereo partly drawn)", "values": [
      {"measurement": "inhibition", "setting": "[1]", "value": 49, "unit": "%"},
      {"measurement": "CCIC50", "setting": "MT4 [2]", "value": 56, "unit": "µM"},
      {"measurement": "EC50", "setting": "MT4 [3]", "value": 200, "unit": "nM"},
      {"measurement": "EC50", "setting": "MT4 [4]", "value": 200, "unit": "nM"}
    ]},
    {"smiles": "O=C(N[C@@H](Cc1ccccc1)C[C@H](O)[C@H](Cc1ccccc1)NC(=O)O[C@@H]1COC2OCCC21)O[C@@H]1COC2OCCC21", "note": "(stereo partly drawn)", "values": [
      {"measurement": "CCIC50", "setting": "MT4 [2]", "value": ">100", "unit": "µM"},
      {"measurement": "inhibition", "setting": "[11]", "value": 50, "unit": "%"},
      {"measurement": "EC50", "setting": "MT4 [3]", "value": 4180, "unit": "nM"},
      {"measurement": "EC50", "setting": "MT4 [4]", "value": 3680, "unit": "nM"}
    ]},
    {"smiles": "O=C(N[C@@H](Cc1ccccc1)C[C@H](O)[C@H](Cc1ccccc1)NC(=O)OC1COC2OCCC12)OC1COC2OCCC12", "note": "(stereo partly drawn)", "values": [
      {"measurement": "inhibition", "setting": "[1]", "value": 53, "unit": "%"},
      {"measurement": "CCIC50", "setting": "MT4 [2]", "value": ">100", "unit": "µM"},
      {"measurement": "EC50", "setting": "MT4 [3]", "value": 77, "unit": "nM"},
      {"measurement": "EC50", "setting": "MT4 [4]", "value": 71, "unit": "nM"}
    ]},
    {"smiles": "O=C(N[C@@H](Cc1ccccc1)[C@@H](O)C[C@H](Cc1ccccc1)NC(=O)OC1COC2OCCC12)Oc1cncs1", "note": "(stereo partly drawn)", "values": [
      {"measurement": "inhibition", "setting": "[1]", "value": 52, "unit": "%"},
      {"measurement": "CCIC50", "setting": "MT4 [2]", "value": ">100", "unit": "µM"},
      {"measurement": "EC50", "setting": "MT4 [3]", "value": 774, "unit": "nM"},
      {"measurement": "EC50", "setting": "MT4 [4]", "value": 428, "unit": "nM"}
    ]},
    {"smiles": "O=C(N[C@@H](Cc1ccccc1)C[C@H](O)[C@H](Cc1ccccc1)NC(=O)OC1COC2OCCC12)Oc1cncs1", "note": "(stereo partly drawn)", "values": [
      {"measurement": "inhibition", "setting": "[1]", "value": 43, "unit": "%"},
      {"measurement": "CCIC50", "setting": "MT4 [2]", "value": ">100", "unit": "µM"},
      {"measurement": "EC50", "setting": "MT4 [3]", "value": 1200, "unit": "nM"},
      {"measurement": "EC50", "setting": "MT4 [4]", "value": 502, "unit": "nM"}
    ]},
    {"smiles": "O=C(N[C@@H](Cc1ccccc1)C[C@H](O)[C@H](Cc1ccccc1)NC(=O)O[C@H]1COC2OCCC21)O[C@H]1COC2OCCC21", "note": "(stereo partly drawn)", "values": [
      {"measurement": "inhibition", "setting": "[1]", "value": 64, "unit": "%"},
      {"measurement": "CCIC50", "setting": "MT4 [2]", "value": ">100", "unit": "µM"},
      {"measurement": "EC50", "setting": "MT4 [3]", "value": 115, "unit": "nM"},
      {"measurement": "EC50", "setting": "MT4 [4]", "value": 34, "unit": "nM"}
    ]},
    {"smiles": "O=C(N[C@@H](Cc1ccccc1)[C@@H](O)C[C@H](Cc1ccccc1)NC(=O)O[C@@H]1COC2OCCC21)O[C@H]1COC2OCCC21", "note": "(stereo partly drawn)", "values": [
      {"measurement": "inhibition", "setting": "[1]", "value": 39, "unit": "%"},
      {"measurement": "CCIC50", "setting": "MT4 [2]", "value": ">100", "unit": "µM"},
      {"measurement": "EC50", "setting": "MT4 [3]", "value": 1920, "unit": "nM"},
      {"measurement": "EC50", "setting": "MT4 [4]", "value": 891, "unit": "nM"}
    ]},
    {"smiles": "CC(C)c1nc(CN(C)C(=O)N[C@H](C(=O)N[C@@H](Cc2ccccc2)C[C@H](O)[C@H](Cc2ccccc2)NC(=O)OCc2cncs2)C(C)C)cs1", "note": "[RITONAVIR]", "values": [
      {"measurement": "inhibition", "setting": "[1]", "value": 78, "unit": "%"},
      {"measurement": "CCIC50", "setting": "MT4 [2]", "value": 56, "unit": "µM"},
      {"measurement": "EC50", "setting": "MT4 [3]", "value": 810, "unit": "nM"},
      {"measurement": "EC50", "setting": "MT4 [4]", "value": 70, "unit": "nM"}
    ]}
  ]
}
